Patent US7901901B2, “Assays for measuring phosphate modification enzyme activity” (Roche Palo Alto LLC, priority 2006, dated 2011)

Test: Phosphodiesterase assay using fluorescence polarization with various metallic ion salts
Format: binding
Conditions: FIG. 1B, 50 nM TAMRA-cGMP with PDE, 10 mM metal salt in 100 mM NaAc/HAc buffer pH 5.2 with 10 mM ZnSO4
Description: After one hour of incubation, the fluorescence polarization was measured using Analyst reader (Molecular Devices).

SMILES	fluorescence signal, indicative of binding to the PDE product
[Cl][Ga]([Cl])[Cl] [GaCl3]	able to show fluorescence signal
[Cl-].[Cl-].[Cl-].[In+3] [InCl3, indium chloride]	able to show fluorescence signal
